# Laboratory results taken from patent US20230348376A1 (TEIJIN PHARMA LIMITED, priority 2020, published 2023).
# Biological target: T1, human VDR (Homo sapiens, UniProt P11473)
# T1 sequence (P11473 1-427): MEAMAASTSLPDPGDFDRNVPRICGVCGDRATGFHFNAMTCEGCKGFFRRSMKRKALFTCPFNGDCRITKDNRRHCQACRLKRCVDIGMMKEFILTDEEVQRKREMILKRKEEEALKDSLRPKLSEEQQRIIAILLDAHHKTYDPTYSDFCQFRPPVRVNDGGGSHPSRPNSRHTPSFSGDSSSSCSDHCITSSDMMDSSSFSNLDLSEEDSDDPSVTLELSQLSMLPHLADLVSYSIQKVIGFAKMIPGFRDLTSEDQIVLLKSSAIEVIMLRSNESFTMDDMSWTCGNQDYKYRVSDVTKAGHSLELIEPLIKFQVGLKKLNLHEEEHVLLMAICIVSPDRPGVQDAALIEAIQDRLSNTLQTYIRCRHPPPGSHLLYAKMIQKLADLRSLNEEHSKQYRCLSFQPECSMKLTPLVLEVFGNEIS
# T1 sequence (P19793 1-462 partner): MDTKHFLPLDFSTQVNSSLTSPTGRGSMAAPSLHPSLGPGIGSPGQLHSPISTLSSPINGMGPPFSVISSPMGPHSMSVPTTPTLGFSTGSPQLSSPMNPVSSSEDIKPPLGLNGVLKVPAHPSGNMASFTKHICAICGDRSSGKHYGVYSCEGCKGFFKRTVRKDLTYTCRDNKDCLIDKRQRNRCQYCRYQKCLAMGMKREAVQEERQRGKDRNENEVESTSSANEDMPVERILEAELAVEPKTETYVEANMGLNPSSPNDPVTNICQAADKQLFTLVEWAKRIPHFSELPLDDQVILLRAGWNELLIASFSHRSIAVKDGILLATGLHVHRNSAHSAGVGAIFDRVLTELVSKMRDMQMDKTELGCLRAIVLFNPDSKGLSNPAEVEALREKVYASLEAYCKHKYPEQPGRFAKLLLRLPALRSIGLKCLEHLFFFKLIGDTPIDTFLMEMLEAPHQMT
# Test: Evaluation of VDR transcription activity in human osteoblasts (HOS cells), luciferase reporter
# Conditions: Activity (EC50, VDR transcription activity), HOS cells transfected with human VDR, human RXRα and DR3 luciferase reporter; 21 hours
row,EC50 [nM],Compound
1,1 to 10,"C=C1[C@H](O)CC(=C/C=C2\CCC[C@]3(C)[C@@H]([C@H](C)CN4CC[C@@H](OC(F)F)C4)CC[C@@H]23)C[C@H]1O [Compound B050, (1R,3R)-5-(2-((1R,3aS,7aR,E)-1-((S)-1-((R)-3-(difluoromethoxy)pyrrolidin-1-yl)propan-2-yl)-7a-methyloctahydro-4H-inden-4-ylidene)ethylidene)-2-methylenecyclohexane-1,3-diol]"
2,10 to 100,"C=C1/C(=C\C=C2/CCC[C@]3(C)[C@@H]([C@H](C)CN4CC(C(C)(F)F)C4)CC[C@@H]23)C[C@@H](O)[C@H](C)[C@@H]1O [Compound A008, (1R,2S,3S,Z)-5-(2-((1R,3aS,7aR,E)-1-((S)-1-(3-(1,1-difluoroethyl)azetidin-1-yl)propan-2-yl)-7a-methyloctahydro-4H-inden-4-ylidene)ethylidene)-2-methyl-4-methylenecyclohexane-1,3-diol]"
3,10 to 100,"C=C1/C(=C\C=C2/CCC[C@]3(C)[C@@H]([C@H](C)CN4CC[C@H](OCC(F)F)C4)CC[C@@H]23)C[C@@H](O)C[C@@H]1O [Compound B053, (1R,3S,Z)-5-(2-((1R,3aS,7aR,E)-1-((S)-1-((S)-3-(2,2-difluoroethoxy)pyrrolidin-1-yl)propan-2-yl)-7a-methyloctahydro-4H-inden-4-ylidene)ethylidene)-4-methylenecyclohexane-1,3-diol]"
4,100 to 1000,"C[C@H](CN1CC(CC(F)F)C1)[C@H]1CC[C@H]2/C(=C/C=C3C[C@@H](O)C[C@H](O)C3)CCC[C@]12C [Compound A021, (1R,3R)-5-(2-((1R,3aS,7aR,E)-1-((S)-1-(3-(2,2-difluoroethyl)azetidin-1-yl)propan-2-yl)-7a-methyloctahydro-4H-inden-4-ylidene)ethylidene)cyclohexane-1,3-diol]"
5,< 1,"C=C1/C(=C\C=C2/CCC[C@]3(C)[C@@H]([C@H](C)CN4CCCC(O)(CC)C4)CC[C@@H]23)C[C@@H](O)C[C@@H]1O (single isomer, unassigned) [Compound C042a]"
6,10 to 100,"C[C@H](CCCN1CC[C@H](C(F)F)C1)[C@H]1CC[C@H]2/C(=C/C=C3C[C@@H](O)C[C@H](O)C3)CCC[C@]12C [Compound B084, (1R,3R)-5-(2-((1R,3aS,7aR,E)-1-((R)-5-((S)-3-(difluoromethyl)pyrrolidin-1-yl)pentan-2-yl)-7a-methyloctahydro-4H-inden-4-ylidene)ethylidene)cyclohexane-1,3-diol]"
7,< 1,"C=C1[C@H](O)CC(=C/C=C2\CCC[C@]3(C)[C@@H]([C@H](C)CN4CC(O)(C(F)(F)F)C4)CC[C@@H]23)C[C@H]1O [Compound A011, (1R,3R)-5-(2-((1R,3aS,7aR,E)-1-((S)-1-(3-hydroxy-3-(trifluoromethyl)azetidin-1-yl)propan-2-yl)-7a-methyloctahydro-4H-inden-4-ylidene)ethylidene)-2-methylenecyclohexane-1,3-diol]"
8,< 1,"C=C1[C@H](O)CC(=C/C=C2\CCC[C@]3(C)[C@@H]([C@H](C)CN4CCC(O)(C(F)(F)F)C4)CC[C@@H]23)C[C@H]1O (single isomer, unassigned) [Compound B046a]"
9,100 to 1000,"C[C@H](CCN1CC[C@@H](OC(F)F)C1)[C@H]1CC[C@H]2/C(=C/C=C3C[C@@H](O)C[C@H](O)C3)CCC[C@]12C [Compound B087, (1R,3R)-5-(2-((1R,3aS,7aR,E)-1-((R)-4-((R)-3-(difluoromethoxy)pyrrolidin-1-yl)butan-2-yl)-7a-methyloctahydro-4H-inden-4-ylidene)ethylidene)cyclohexane-1,3-diol]"
10,1 to 10,"C=C1[C@H](O)CC(=C/C=C2\CCC[C@]3(C)[C@@H]([C@H](C)CN4CCOC5(CC5)C4)CC[C@@H]23)C[C@H]1O [Compound D011, (1R,3R)-5-(2-((1R,3aS,7aR,E)-1-((S)-1-(4-oxa-7-azaspiro[2.5]octan-7-yl)propan-2-yl)-7a-methyloctahydro-4H-inden-4-ylidene)ethylidene)-2-methylenecyclohexane-1,3-diol]"
11,1 to 10,"C=C1[C@H](O)CC(=C/C=C2\CCC[C@]3(C)[C@@H]([C@H](C)CN4CCO[C@@H](C)C4)CC[C@@H]23)C[C@H]1O [Compound D010, (1R,3R)-5-(2-((1R,3aS,7aR,E)-7a-methyl-1-((S)-1-((S)-2-methylmorpholino)propan-2-yl)-octahydro-4H-inden-4-ylidene)ethylidene)-2-methylene-cyclohexane-1,3-diol]"
12,10 to 100,"C=C1/C(=C\C=C2/CCC[C@]3(C)[C@@H]([C@H](C)CN4CCOC(C(F)(F)F)C4)CC[C@@H]23)C[C@@H](O)[C@H](C)[C@@H]1O (single isomer, unassigned) [Compound D009b]"
13,100 to 1000,"C[C@H](CCN1CC(OC(F)F)C1)[C@H]1CC[C@H]2/C(=C/C=C3C[C@@H](O)C[C@H](O)C3)CCC[C@]12C [Compound A025, (1R,3R)-5-(2-((1R,3aS,7aR,E)-1-((R)-4-(3-(difluoromethoxy)azetidin-1-yl)butan-2-yl)-7a-methyloctahydro-4H-inden-4-ylidene)ethylidene)cyclohexane-1,3-diol]"
14,100 to 1000,"C[C@H](CCN1CC(OC(F)(F)F)C1)[C@H]1CC[C@H]2/C(=C/C=C3C[C@@H](O)C[C@H](O)C3)CCC[C@]12C [Compound A028, (1R,3R)-5-(2-((1R,3aS,7aR,E)-7a-methyl-1-((R)-4-(3-(trifluoromethoxy)azetidin-1-yl)butan-2-yl)octahydro-4H-inden-4-ylidene)ethylidene)cyclohexane-1,3-diol]"
15,1 to 10,"C=C1/C(=C\C=C2/CCC[C@]3(C)[C@@H]([C@@H](C)CN4CCC(O)(C(F)F)CC4)CC[C@@H]23)C[C@@H](O)C[C@@H]1O [Compound C024, (1R,3S,Z)-5-(2-((1R,3aS,7aR,E)-1-((R)-1-(4-(difluoromethyl)-4-hydroxypiperidin-1-yl)propan-2-yl)-7a-methyloctahydro-4H-inden-4-ylidene)ethylidene)-4-methylenecyclohexane-1,3-diol]"
16,1 to 10,"C=C1/C(=C\C=C2/CCC[C@]3(C)[C@@H]([C@H](C)CN4CC[C@@H](C(C)(F)F)C4)CC[C@@H]23)C[C@@H](O)[C@H](C)[C@@H]1O [Compound B033, (1R,2S,3S,Z)-5-(2-((1R,3aS,7aR,E)-1-((S)-1-((R)-3-(1,1-difluoroethyl)pyrrolidin-1-yl)propan-2-yl)-7a-methyloctahydro-4H-inden-4-ylidene)ethylidene)-2-methyl-4-methylenecyclohexane-1,3-diol]"
17,1 to 10,"C=C1/C(=C\C=C2/CCC[C@]3(C)[C@@H]([C@@H](C)CN4CCCC(O)(C(F)(F)F)C4)CC[C@@H]23)C[C@@H](O)C[C@@H]1O (single isomer, unassigned) [Compound C033b]"
18,1 to 10,"C=C1/C(=C\C=C2/CCC[C@]3(C)[C@@H]([C@@H](C)CN4CC[C@@H](C(F)F)C4)CC[C@@H]23)C[C@@H](O)C[C@@H]1O [Compound B096, (1R,3S,Z)-5-(2-((1R,3aS,7aR,E)-1-((R)-1-((R)-3-(difluoromethyl)pyrrolidin-1-yl)propan-2-yl)-7a-methyloctahydro-4H-inden-4-ylidene)ethylidene)-4-methylenecyclohexane-1,3-diol]"
19,1 to 10,"C[C@@H](CN1CC[C@@H](C(F)F)C1)[C@H]1CC[C@H]2/C(=C/C=C3CC(O)C[C@H](O)C3)CCC[C@]12C (stereo in doubt) [Compound B100, (1R,3S)-5-(2-((1R,3aS,7aR,E)-1-((R)-1-((R)-3-(difluoromethyl)pyrrolidin-1-yl)propan-2-yl)-7a-methyloctahydro-4H-inden-4-ylidene)ethylidene)cyclohexane-1,3-diol]"
20,1 to 10,"C=C1/C(=C\C=C2/CCC[C@]3(C)[C@@H]([C@H](C)CN4CCOC(C(F)(F)F)C4)CC[C@@H]23)C[C@@H](O)[C@H](C)[C@@H]1O (single isomer, unassigned) [Compound D009a]"
21,1 to 10,"C=C1/C(=C\C=C2/CCC[C@]3(C)[C@@H]([C@H](C)CN4CC(O)(C(F)(F)F)C4)CC[C@@H]23)C[C@@H](O)C[C@@H]1O [Compound A009, (1R,3S,Z)-5-(2-((1R,3aS,7aR,E)-1-((S)-1-(3-hydroxy-3-(trifluoromethyl)azetidin-1-yl)propan-2-yl)-7a-methyloctahydro-4H-inden-4-ylidene)ethylidene)-4-methylenecyclohexane-1,3-diol]"
22,1 to 10,"C=C1[C@H](O)CC(=C/C=C2\CCC[C@]3(C)[C@@H]([C@H](C)CCN4CC[C@@H](C(C)(F)F)C4)CC[C@@H]23)C[C@H]1O [Compound B093, (1R,3R)-5-(2-((1R,3aS,7aR,E)-1-((R)-4-((R)-3-(1,1-difluoroethyl)pyrrolidin-1-yl)butan-2-yl)-7a-methyloctahydro-4H-inden-4-ylidene)ethylidene)-2-methylenecyclohexane-1,3-diol]"
